Consider eight compounds from US10035778B2, “Meta-azacyclic amino benzoic acid derivatives as pan integrin antagonists” (Saint Louis University, priority 2015, dated 2018).

Data set [1] addresses Recombinant human integrin αvβ5 (Homo sapiens (Human), UniProt P06756+P18084). Put plainly: Solid Phase Receptor Assay (SPRA) for αvβ5 function. It counts as binding. Particulars: vitronectin-coated plate. The protocol: 4. Solid Phase Receptor Assay (SPRA) for αvβ5 Function
Recombinant human vitronectin (R&D Systems, 2308-VN) at 0.25 μg/mL in TBS+ buffer (25 mM Tris pH 7.4, 137 mM NaCl, 2.7 mM KCl, 1 mM CaCl2, 1 mM MgCl2, 1 mM MnCl2) was added to wells (50 μL/well) of a 96-well half-well transparent microtiter plate (Greiner 675061) and incubated overnight at 4° C. Wells were washed 3 times with 150 μL TBS+ and 150 μL of blocking buffer (TBS+ with 1% bovine serum albumin, Sigma A7906) were added. The plate was incubated for 1 hr at 37° C. and then washed 3× with TBS+ buffer. Recombinant human integrin αvβ5 (R&D Systems, 2528-AV) was diluted to 0.1 μg/mL in TBS+/0.1% bovine serum albumin. Compounds were diluted 1:100 into the integrin solution and then 50 μL added to empty wells of the washed vitronectin-coated plate according to a standard template with each sample repeated in triplicate. After incubation for two hours at room temperature, the plate was washed 3× with 150 μL of TBS+ buffer. To each well, 50 μl of biotinylated anti-αv antibody (R&D Systems, BAF1219) at 0.5 μg/mL in TBS+/0.1% BSA at 0.5 μg/mL were added and the plate covered and incubated for 1 hr at room temperature. After washing the plate 3× with 150 μL of TBS+ buffer, 50 μL of streptavidin-conjugated horseradish peroxidase (R&D Systems DY998) diluted in TBS+ blocking buffer were added to the wells and the plate incubated for 20 min at room temperature. The plate was washed 3× with TBS+ buffer followed by 50 μL of TMB substrate (Sigma T4444) added to each well and the plate incubated for 20 min at room temperature. Plates were read by colorimetric detection at 650 nm wavelength using a Tecan Safire II plate reader. Concentration-response curves were constructed by non-linear regression (best fit) analysis, and IC50 values were calculated for each compound.

Data set [2] is described as follows: IV cassette pharmacokinetic study in male Sprague-Dawley rats (Saint Louis University). It counts as in vivo. Conditions: plasma; male Sprague-Dawley rat, 1 mg/kg IV cassette, sampling to 24 h; read-out: plasma t½ after 1 mg/kg IV bolus dose in rat (converted). The protocol: (§1) A minimally sufficient volume of dimethylsulfoxide (DMSO) was added to each test compound to achieve solubilization. For intravenous (IV) delivery, compounds were then formulated as solutions in glycerol formal: saline (either 20:80 or 40:60 v/v) (Sigma Chemicals, St. Louis). For oral (PO) administration, compounds were formulated with 0.5% methylcellulose. Five to six compound solutions were combined into a singled mixed solution for IV and PO cassette administration with final DMSO concentrations <0.6% or <1.2%, for the IV and PO cassettes, respectively. Analytes were detected in test samples using an LC/MS/MS (liquid chromatography/mass spectrometry) system consisting of an LC-20AD pump (Shimadzu, Kyoto, Japan), an HTC PAL autosampler (Leap technologies, Carrboro, N.C.), and a Sciex API-4000 mass spectrometer in ESI mode (AB Sciex, Foster City, Calif.). An Amour C18 reverse phase column (Analytical Sales and Services, Pompton Plains, N.J.) was used for chromatographic separation.
(§2) Pharmacokinetic (PK) studies conducted at Saint Louis University used male Sprague-Dawley rats with an initial body weight of 200 to 220 g. IV PK studies were performed with the following compounds: Examples 1-3 and 5-17 and comparison compounds C12-C18, C29, and C30. Animals were allowed free access to food and water. Rats were individually housed and connected to jugular vein catheters. Each cassette formulation was administered intravenously to two rats (1 mL/kg body weight). Each cassette formulation contained 5-6 compounds at 1 mg/kg in either 20:80 or 40/60 glycerol formal/saline (v/v). Blood was collected manually via the catheter into lithium-heparin tubes at 0.017, 0.083, 0.5, 1, 2, 4, 6 and 24 hours post-dose. Animals were euthanized with CO2 at the end of the experiment.
(§3) Internal standard was added to all samples at 200 ng/mL (final), as well as 150 μL of acetonitrile. Plasma samples (50 μL total volume) were diluted with control nave rat plasma as appropriate to bring the sample measurement into the linear dynamic range of the standard curve. The samples were capped and mixed on a multi-plate vortexer for 5 minutes and centrifuged for 5 minutes at 3200 rmp. The supernant was transferred to 96-well sample plate and capped for LC/MS/MS analysis. Compounds were optimized and monitored for their respective MRM transitions. The mobile phases consisted of 0.1% formic acid (aqueous) and 100% acetonitrile (organic) with an Amour C18 reverse phase column (2.1×30 mm, 5 micron) at a flow rate of 0.35 mL/min. The starting phase was 10% acetonitrile for the 0.9 minutes then increased to 90% acetonitrile over 0.4 minutes, and was maintained for an additional 0.2 minutes before returning to 10% acetonitrile over 0.4 minutes. The 10% acetonitrile was held for an additional 1.6 minutes. Peak areas were integrated using Analyst 1.5.1 (AB Sciex, Foster City, Calif.).

Data set [3] can be described thus: Oral (PO) cassette pharmacokinetic study in male Sprague-Dawley rats. It counts as in vivo. Conditions: plasma; male Sprague-Dawley rat, 2 mg/kg oral gavage cassette in 0.5% methylcellulose; read-out: AUC (0-inf) after a 2 mg/kg PO dose in rat. The method, then: as §1, §2
Oral PK studies were conducted with the following compounds: Examples 1-3 and 5-17 and comparison compounds C12, C14-16 and C29-30. The PO cassette formulations were administered via oral gavage to two rats (10 mL/kg body weight) containing 5-6 compounds per cassette. The oral dose was administered at 2 mg/kg/compound in 0.5% methylcellulose. Blood collection time points were 0.25, 0.5, 1, 2, 4, 6 and 24 hours post-dose into lithium-heparin tubes. Animals were euthanized with CO2 at the end of the experiment.
as §3

pIC50: −log10 of the molar value.

A word on the pIC50: it is the negative decadic logarithm of the IC50, by convention in mol/L.

Chain of Recombinant human integrin αvβ5 (P06756 31-992): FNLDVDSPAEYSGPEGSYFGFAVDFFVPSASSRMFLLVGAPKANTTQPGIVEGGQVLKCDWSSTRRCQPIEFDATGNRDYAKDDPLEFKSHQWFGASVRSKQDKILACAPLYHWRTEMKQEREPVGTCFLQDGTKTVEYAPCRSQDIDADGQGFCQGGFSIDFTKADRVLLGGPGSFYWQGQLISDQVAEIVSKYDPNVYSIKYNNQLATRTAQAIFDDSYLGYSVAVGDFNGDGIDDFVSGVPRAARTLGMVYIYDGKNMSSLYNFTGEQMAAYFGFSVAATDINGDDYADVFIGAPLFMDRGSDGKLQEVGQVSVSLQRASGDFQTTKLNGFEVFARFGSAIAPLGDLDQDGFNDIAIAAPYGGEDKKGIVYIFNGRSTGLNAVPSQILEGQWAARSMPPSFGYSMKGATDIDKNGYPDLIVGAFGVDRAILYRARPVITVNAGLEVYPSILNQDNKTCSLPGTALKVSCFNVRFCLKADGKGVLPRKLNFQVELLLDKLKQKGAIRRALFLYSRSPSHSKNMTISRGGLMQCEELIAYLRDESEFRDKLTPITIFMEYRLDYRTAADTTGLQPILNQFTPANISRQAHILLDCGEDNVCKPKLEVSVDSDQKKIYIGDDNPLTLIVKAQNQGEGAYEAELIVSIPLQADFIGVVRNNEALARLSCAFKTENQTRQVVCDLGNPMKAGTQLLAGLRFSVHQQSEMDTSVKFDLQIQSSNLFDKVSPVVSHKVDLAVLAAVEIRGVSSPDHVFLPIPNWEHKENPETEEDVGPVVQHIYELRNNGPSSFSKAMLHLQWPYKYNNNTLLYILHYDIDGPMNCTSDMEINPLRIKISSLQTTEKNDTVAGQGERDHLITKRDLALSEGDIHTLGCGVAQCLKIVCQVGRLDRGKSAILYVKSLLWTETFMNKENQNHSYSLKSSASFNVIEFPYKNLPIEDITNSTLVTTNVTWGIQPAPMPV
Chain of Recombinant human integrin αvβ5 (P18084 24-719): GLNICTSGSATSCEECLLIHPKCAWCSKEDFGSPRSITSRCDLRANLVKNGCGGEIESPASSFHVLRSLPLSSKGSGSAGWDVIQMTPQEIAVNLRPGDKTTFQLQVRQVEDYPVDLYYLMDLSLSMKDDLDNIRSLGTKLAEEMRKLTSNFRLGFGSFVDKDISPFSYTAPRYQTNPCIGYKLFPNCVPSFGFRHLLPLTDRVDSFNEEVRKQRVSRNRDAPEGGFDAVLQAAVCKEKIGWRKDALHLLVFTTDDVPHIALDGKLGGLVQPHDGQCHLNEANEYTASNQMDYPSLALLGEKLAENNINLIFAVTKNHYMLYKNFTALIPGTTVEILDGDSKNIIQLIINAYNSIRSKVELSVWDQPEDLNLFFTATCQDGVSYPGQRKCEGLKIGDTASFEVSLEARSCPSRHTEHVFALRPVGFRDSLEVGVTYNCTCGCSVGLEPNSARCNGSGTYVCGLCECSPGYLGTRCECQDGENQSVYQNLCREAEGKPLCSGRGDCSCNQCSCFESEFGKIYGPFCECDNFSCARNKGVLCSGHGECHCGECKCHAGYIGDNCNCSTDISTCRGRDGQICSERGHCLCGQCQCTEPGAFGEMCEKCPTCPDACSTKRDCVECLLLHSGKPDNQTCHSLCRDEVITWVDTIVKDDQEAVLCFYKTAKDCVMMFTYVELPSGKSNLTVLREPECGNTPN

`O=C(O)C[C@H](NC(=O)CNC(=O)c1cc(O)cc(NC2=NCC(O)CN2)c1)c1cc(Br)cc(OC(F)(F)F)c1` (stereo partly drawn) [Example 17, (3S)-3-(3-bromo-5-(trifluoromethoxy)phenyl)-3-(2-(3-hydroxy-5-((5-hydroxy-1,4,5,6-tetrahydropyrimidin-2-yl)amino)benzamido)acetamido)propanoic acid]: in data set [1], the negative-log IC50 (pIC50) is 9.22. In data set [2], the half-life is 4.1 h. Further, the AUC(0-inf) in data set [3] came to 13100 ng·h/mL.

For the compound `O=C(O)C[C@H](NC(=O)CNC(=O)c1cncc(NC2=NCC(O)CN2)c1)c1cc(Cl)cc(C(F)(F)F)c1` (stereo partly drawn) [Example 7], in data set [1], the negative-log IC50 (pIC50) is 9.70. Besides, in data set [2], the half-life was 4.6 h. The AUC(0-inf) in data set [3] amounted to 3890 ng·h/mL.

As for `O=C(O)C[C@H](NC(=O)CNC(=O)c1cc(O)cc(NC2=NCC(O)CN2)c1)c1cc(Br)cc(C(F)(F)F)c1` (stereo partly drawn) [Example 2, (3S)-3-(3-bromo-5-(trifluoromethyl)phenyl)-3-(2-(3-hydroxy-5-((5-hydroxy-1,4,5,6-tetrahydropyrimidin-2-yl)amino)benzamido)acetamido)propanoic acid], the pIC50 in data set [1] is 9.40. Besides, the half-life in data set [2] is 9.1 h. The AUC(0-inf) in data set [3] is 19300 ng·h/mL.

In the case of `O=C(O)C[C@H](NC(=O)CNC(=O)c1cncc(NC2=NCC(O)CN2)c1)c1cc(Br)cc(Br)c1` (stereo partly drawn) [Example 14, (3S)-3-(3,5-dibromophenyl)-3-[[2-[[5-[(5-hydroxy-1,4,5,6-tetrahydropyrimidin-2-yl)amino]pyridine-3-carbonyl]amino]acetyl]amino]propanoic acid], the pIC50 in data set [1] was 10.00. Besides, the half-life in data set [2] is 34.2 h. The AUC(0-inf) in data set [3] amounted to 6500 ng·h/mL.

`Cc1cc(Cl)cc([C@H](CC(=O)O)NC(=O)CNC(=O)c2cc(O)cc(NC3=NCC(O)CN3)c2)c1` (stereo partly drawn) [Example 12, (3S)-3-[3-chloro-5-methyl-phenyl)-3-(2-(3-hydroxy-5-((5-hydroxy-1,4,5,6-tetrahydropyrimidin-2-yl)amino)benzamido)acetamido)propanoic acid]: the pIC50 in data set [1] was 9.40. In data set [2], the half-life was 13.7 h. Further, the AUC(0-inf) in data set [3] was 9110 ng·h/mL.

Regarding `O=C(O)C[C@H](NC(=O)CNC(=O)c1cncc(NC2=NCC(O)CN2)c1)c1cc(Br)cc(C(F)(F)F)c1` (stereo partly drawn) [Example 9, (3S)-3-[3-bromo-5-(trifluoromethyl)phenyl]-3-[[2-[[5-[(5-hydroxy-1,4,5,6-tetrahydropyrimidin-2-yl)amino]pyridine-3-carbonyl]amino]acetyl]amino]propanoic acid], the pIC50 in data set [1] is 9.52. For the same compound, in data set [2], the half-life is 5.6 h. Also, in data set [3], the AUC(0-inf) stood at 4120 ng·h/mL.

In the case of `O=C(O)C[C@H](NC(=O)CNC(=O)c1cc(O)cc(NC2=NCC(O)CN2)c1)c1cc(Cl)cc(Cl)c1` (stereo partly drawn) [Example 15, (3S)-3-[3,5-dichloro-phenyl)-3-(2-(3-hydroxy-5-((5-hydroxy-1,4,5,6-tetrahydropyrimidin-2-yl)amino)benzamido)acetamido)propanoic acid], in data set [1], the pIC50 was 9.52. The half-life in data set [2] was 23.8 h. Also, the AUC(0-inf) in data set [3] is 15600 ng·h/mL.

In the case of `O=C(O)C[C@H](NC(=O)CNC(=O)c1cc(O)cc(NC2=NCC(O)CN2)c1)c1cc(C(F)(F)F)cc(C(F)(F)F)c1` (stereo partly drawn) [Example 10, (3S)-3-[3,5-bis(trifluoromethyl)phenyl)-3-(2-(3-hydroxy-5-((5-hydroxy-1,4,5,6-tetrahydropyrimidin-2-yl)amino)benzamido)acetamido]propanoic acid], in data set [1], the negative-log IC50 (pIC50) is 9.00. The half-life in data set [2] is 3.9 h. Further, the AUC(0-inf) in data set [3] was 13000 ng·h/mL.
